Publication PMC12735921, “Evaluation of Antiproliferative Activity and Molecular Modeling Studies of Some Novel Benzimidazolone-Bridged Hybrid Compounds” (Pharmaceuticals, 2025)
“And” between values parts separate entries of the source, which are not always exact repeats. Identical values can stand only once. Marks after values point to notes of the source that are not given here.

Columns and labels:
Format in all cases: cell-based, human
HeLa cells [1] = assay: MTT cell viability assay, HeLa; details: for IC50: Homo sapiens, HeLa, MTT, 48 h, mean ± SD, n = 3; for HeLa Selectivity Index (SI): SI = IC50 (HEK 293)/IC50 (HeLa)
Method: (§1) Cell viability assay was performed on the human lung cancer (A549) (ATCC CCL-185), human breast cancer (MCF-7) (ATCC-HTB-22), cervical cancer (HeLa) (ATCC-CCL-2), and human embryonic kidney 293 (HEK293) (ATCC-CRL-1573) cell lines, which were purchased from Deutsche Sammlung von Mikroorganismen und Zellkulturen (DSMZ, Braunschweig, Germany). The cells were maintained in Dulbecco’s modified Eagle’s medium (DMEM), supplemented with 10% fetal bovine serum (FBS), 2 mM L-glutamine, 100 U/mL penicillin, and 100 mg/L streptomycin (Biochrom AG, Berlin, Germany) at 37 °C in a humidified atmosphere of 5% CO2.
(§2) The cytotoxic effect was determined by the MTT (3-(4,5-dimethyl-2-thiazolyl)-2,5-diphenyl-2H-tetrazolium bromide) cell viability assay. Cells were seeded at an initial concentration of 1 × 10^5 cells/mL in 96-well microplates. Cells were then treated with different concentrations (0.5, 5, 10, 25, 50, 100 and 200 µM) of the novel synthesized compounds for 48 h. After the incubation period, the formed formazan crystals were dissolved in dimethyl sulfoxide (DMSO), and the optical density (OD) of the compounds was measured at 570 nm using a spectrophotometer (BMG Labtech, Ortenberg, Germany). Cytotoxicity was expressed as an increase in the mean percentage of cytotoxicity relative to the unexposed control ± standard deviation (SD). […] Control values were set at 0% cytotoxicity. IC50 was calculated by fitting the data to a sigmoidal curve using a four-parameter logistic model and was presented as an average of three independent measurements. […] Doxorubicin was used as a positive control. Each sample was tested in triplicate.
(§3) To evaluate the selectivity of the tested compound(s) toward cancer cells over normal cells, the Selectivity Index (SI) was calculated using the following formula:SI = IC50 (normal cells)/IC50 (cancer cells)
(§4) An SI value greater than 2 was considered to indicate selective cytotoxicity, while values below 2 were interpreted as non-selective. Higher SI values reflect greater therapeutic potential due to reduced toxicity toward normal cells.

A549 cells [2] = assay: LDH leakage assay, A549; details: A549, IC50 concentration of compound, 48 h; H2O2 positive control; mean ± SD, n = 3
Method: (§5) One hundred microliters of culture medium was transferred to a new 96-well plate. One hundred microliters of LDH reaction solution was added to each well, and absorbance was measured at 490 nm using an ELISA plate reader (BMG Labtech, Ortenberg, Germany) after 30 min.

HEK 293 cells = assay: MTT cell viability assay, non-cancerous HEK 293; details: Homo sapiens, HEK293, 48 h, mean ± SD, n = 3
Method: as §1
The cytotoxic effect was determined by the MTT (3-(4,5-dimethyl-2-thiazolyl)-2,5-diphenyl-2H-tetrazolium bromide) cell viability assay. Cells were seeded at an initial concentration of 1 × 10^5 cells/mL in 96-well microplates. Cells were then treated with different concentrations (0.5, 5, 10, 25, 50, 100 and 200 µM) of the novel synthesized compounds for 48 h. After the incubation period, the formed formazan crystals were dissolved in dimethyl sulfoxide (DMSO), and the optical density (OD) of the compounds was measured at 570 nm using a spectrophotometer (BMG Labtech, Ortenberg, Germany). Cytotoxicity was expressed as an increase in the mean percentage of cytotoxicity relative to the unexposed control ± standard deviation (SD). […] Control values were set at 0% cytotoxicity. IC50 was calculated by fitting the data to a sigmoidal curve using a four-parameter logistic model and was presented as an average of three independent measurements. […] Each sample was tested in triplicate.

MCF-7 cells [3] = assay: Cell cycle analysis (PI staining, flow cytometry), MCF-7; details: MCF-7, IC50 concentration, 48 h, mean ± SEM, n = 3
Method: (§6) Cell cycle distribution was assessed by propidium iodide (PI) staining and flow cytometry. HeLa, MCF-7, and A549 cells were seeded in 6-well plates at a density of 1 × 10^5 cells per well and allowed to attach overnight. […] Following exposure, both adherent and floating cells were collected, washed twice with cold phosphate-buffered saline (PBS, pH 7.4), and fixed overnight in 70% cold ethanol at 4 °C. After fixation, the cells were centrifuged and resuspended in 500 µL of PI/RNase staining solution containing 50 µg/mL PI and 100 µg/mL RNase A (Sigma-Aldrich®, St. Louis, MO, USA), followed by incubation in the dark for 30 min at 37 °C. The stained samples were analyzed using a Muse™ Cell Analyzer (Merck, Millipore, Germany) equipped with a 488 nm excitation laser and a 617 nm emission filter. A minimum of 10,000 events per sample were acquired after exclusion of debris and doublets via FSC-A vs. FSC-H gating. The DNA content histograms were generated automatically, and cell populations were expressed as percentages of G0/G1, S, and G2/M phases using the Muse™ Cell Cycle Analysis Software 1.5.0.0. All assays were conducted in triplicate biological repeats (n = 3), and results were reported as mean ± SEM.

MCF-7 cells [4] = assay: Intracellular GSH/GSSG ratio, MCF-7; details: MCF-7, IC50 concentration of compound, 48 h; H2O2 positive control; mean ± SD, n = 3
Method: (§7) Intracellular reduced (GSH) and oxidized (GSSG) glutathione levels were measured using the GSH/GSSG Ratio Detection Assay Kit (Cayman Chemical, Ann Arbor, MI, USA, Cat. No: 703002) according to the manufacturer’s protocol. […] After treatment, cells were washed with cold PBS and lysed with MES buffer provided in the kit.
(§8) To prevent oxidation of GSH to GSSG during processing, samples were deproteinized using the supplied metaphosphoric acid solution and neutralized accordingly. Total glutathione and GSSG levels were measured separately by adding the appropriate buffers and reagents to the wells of a 96-well plate, followed by the addition of DTNB recycling reagent and glutathione reductase. Absorbance was read at 405 nm using a microplate reader (BMG Labtech, Germany). The amount of GSH was calculated by subtracting 2 × GSSG from the total glutathione, and the GSH/GSSG ratio was used to assess intracellular redox status.

A549 cells [5] = assay: Total oxidative status (TOS), A549; details: A549, IC50 concentration of compound, 48 h; H2O2 250 µM positive control; mean ± SD, n = 3
Method: (§9) TOS were evaluated using a commercially available kit (Rel Assay Diagnostics®, Gaziantep, Turkey) according to the manufacturer’s instructions. […] The TOS assay quantifies oxidizing agents based on their ability to convert an iron (II) ion chelator complex to iron (III) ions. The results were calibrated against hydrogen peroxide (H2O2, 250 µM) as a positive control for 48 h and expressed as µmol H2O2 equivalents per liter. The analysis was performed in three independent biological replicates (n = 3).

A549 cells [6] = assay: MTT cell viability assay, A549; details: for IC50: Homo sapiens, A549, MTT, 48 h, mean ± SD, n = 3; for A549 Selectivity Index (SI): SI = IC50 (HEK 293)/IC50 (A549)
Method: as §1, §2, §3, §4

MCF-7 cells [7] = assay: Total oxidative status (TOS), MCF-7; details: MCF-7, IC50 concentration of compound, 48 h; H2O2 250 µM positive control; mean ± SD, n = 3
Method: as §9

A549 cells [8] = assay: Cell cycle analysis (PI staining, flow cytometry), A549; details: A549, IC50 concentration, 48 h, mean ± SEM, n = 3
Method: as §6

MCF-7 cells [9] = assay: LDH leakage assay, MCF-7; details: MCF-7, IC50 concentration of compound, 48 h; H2O2 positive control; mean ± SD, n = 3
Method: as §5

MCF-7 cells [10] = assay: MTT cell viability assay, MCF-7; details: for IC50: Homo sapiens, MCF7, MTT, 48 h, mean ± SD, n = 3; for MCF-7 Selectivity Index (SI): SI = IC50 (HEK 293)/IC50 (MCF-7)
Method: as §1, §2, §3, §4

A549 cells [11] = assay: Intracellular GSH/GSSG ratio, A549; details: A549, IC50 concentration of compound, 48 h; H2O2 positive control; mean ± SD, n = 3
Method: as §7, §8

HeLa cells [12] = assay: LDH leakage assay, HeLa; details: IC50 concentration of compound, 48 h, H2O2 positive control, mean ± SD, n = 3
Method: as §5

HeLa cells [13] = assay: Total oxidative status (TOS), HeLa; details: IC50 concentration of compound, 48 h, H2O2 250 µM positive control, mean ± SD, n = 3
Method: as §9

HeLa cells [14] = assay: Intracellular GSH/GSSG ratio, HeLa; details: IC50 concentration of compound, 48 h, H2O2 positive control, mean ± SD, n = 3
Method: as §7, §8

HeLa cells [15] = assay: Cell cycle analysis (PI staining, flow cytometry), HeLa; details: IC50 concentration, 48 h, mean ± SEM, n = 3
Method: as §6

| SMILES | IC50 (HeLa cells [1]) | HeLa Selectivity Index (SI) (HeLa cells [1]) | LDH (A549 cells [2]) | IC50 (HEK 293 cells) | GSH/GSSG (MCF-7 cells [4]) | TOS (A549 cells [5]) | IC50 (A549 cells [6]) | A549 Selectivity Index (SI) (A549 cells [6]) | TOS (MCF-7 cells [7]) | cells in G0/G1 phase (A549 cells [8]) | cells in G2/M phase (A549 cells [8]) | cells in S phase (A549 cells [8]) | LDH (MCF-7 cells [9]) | IC50 (MCF-7 cells [10]) | MCF-7 Selectivity Index (SI) (MCF-7 cells [10]) | GSH/GSSG (A549 cells [11]) | LDH (HeLa cells [12]) | TOS (HeLa cells [13]) | also measured |
| --- | --- | --- | --- | --- | --- | --- | --- | --- | --- | --- | --- | --- | --- | --- | --- | --- | --- | --- | --- |
| O=C(Cn1c(=O)n(CC(=O)NNC(=O)c2cc3cc(Br)ccc3oc2=O)c2cc(Cl)c(Cl)cc21)NNC(=O)c1cc2cc(Br)ccc2oc1=O [Compound 12c, N′,N′′′ -(2,2′-(5,6-dichloro-2-oxo-1H-benzo[d]imidazole-1,3(2H)-diyl)bis(acetyl))bis(6-bromo-2-oxo-2H-chromene-3-carbohydrazide)] | 11.5 ± 0.66 µM | 1.86 | 30.4 ± 2.6 µU/mL and 30.4 ± 2.6 ^a,b µU/mL | 21.5 ± 1.24 µM | 10.2 ± 1.0 nmol/mg Protein and 10.2 ± 1.0 ^a,b nmol/mg Protein | 8.5 ± 0.7 µmol H2O2 eq/L and 8.5 ± 0.7 ^a,b µmol H2O2 eq/L | 10.2 ± 0.58 µM | 2.01 | 8.3 ± 0.6 µmol H2O2 eq/L and 8.3 ± 0.6 ^a,b µmol H2O2 eq/L | 68.4 ± 2.4% | 16.4 ± 1.5% | 15.2 ± 1.3% | 28.8 ± 2.2 µU/mL and 28.8 ± 2.2 ^a,b µU/mL | 9.7 ± 0.56 µM | 2.21 | 9.5 ± 0.8 nmol/mg Protein and 9.5 ± 0.8 ^a,b nmol/mg Protein | – | – | cells in G0/G1 phase (MCF-7 cells [3]): 72.2 ± 2.3%; cells in G2/M phase (MCF-7 cells [3]): 12.5 ± 1.1%; cells in S phase (MCF-7 cells [3]): 15.3 ± 1.2% |
| O=C(Cn1c(=O)n(CC(=O)NNC(=O)c2cc3cc(Cl)cc(Cl)c3oc2=O)c2cc(Cl)c(Cl)cc21)NNC(=O)c1cc2cc(Cl)cc(Cl)c2oc1=O [Compound 12d, N′,N′′′ -(2,2′-(5,6-dichloro-2-oxo-1H-benzo[d]imidazole-1,3(2H)-diyl)bis(acetyl))bis(6,8-Dichloro-2-oxo-2H-chromene-3-carbohydrazide)] | 12.8 ± 0.73 µM | 2.4 | 27.3 ± 2.2 µU/mL and 27.3 ± 2.2 ^a,b µU/mL | 31.2 ± 1.8 µM | – | 7.9 ± 0.6 µmol H2O2 eq/L and 7.9 ± 0.6 ^a,b µmol H2O2 eq/L | 15.5 ± 0.89 µM | 2.01 | – | 62.1 ± 2.1% | 19.0 ± 1.5% | 18.9 ± 1.4% | – | 21.9 ± 1.26 µM | 1.42 | 10.1 ± 0.9 nmol/mg Protein and 10.1 ± 0.9 ^a,b nmol/mg Protein | 29.7 ± 2.4 µU/mL and 29.7 ± 2.4 ^a,b µU/mL | 8.4 ± 0.6 µmol H2O2 eq/L and 8.4 ± 0.6 ^a,b µmol H2O2 eq/L | GSH/GSSG (HeLa cells [14]): 9.7 ± 1.0; cells in G0/G1 phase (HeLa cells [15]): 40.1 ± 2.0%; cells in G2/M phase (HeLa cells [15]): 36.4 ± 1.8% |
| OO [Compound H2O2, hydrogen peroxide, reference compound] | – | – | 40.7 ± 3.0 ^a µU/mL | – | 7.4 ± 0.9 ^a nmol/mg Protein | 10.5 ± 0.8 ^a µmol H2O2 eq/L | – | – | 10.1 ± 0.7 ^a µmol H2O2 eq/L | – | – | – | 39.5 ± 2.7 ^a µU/mL | – | – | 7.1 ± 0.9 ^a nmol/mg Protein | 41.5 ± 3.2 ^a µU/mL | 10.4 ± 0.7 ^a µmol H2O2 eq/L | – |
